From ChEMBL document CHEMBL2429740, “The synthesis and SAR study of phenylalanine-derived (Z)-5-arylmethylidene rhodanines as anti-methicillin-resistant Staphylococcus aureus (MRSA) compounds” (2013)
In brackets after ≈: the same amount, converted by molar mass.

Legend:
Assay type in all cases: functional
[1] = tested on: Staphylococcus aureus; test: Antibacterial activity against methicillin-resistant Staphylococcus aureus CA ATCC BAA-1680 by microdilution technique
[2] = tested on: Staphylococcus aureus; test: Antibacterial activity against methicillin-resistant Staphylococcus aureus ST239 HS770 by microdilution technique
[3] = tested on: Staphylococcus aureus; test: Antibacterial activity against methicillin-resistant Staphylococcus aureus ATCC 700787 by microdilution technique
[4] = tested on: Staphylococcus aureus; test: Antibacterial activity against methicillin-resistant Staphylococcus aureus ATCC BAA-39 by microdilution technique
[5] = tested on: Staphylococcus aureus; test: Antibacterial activity against methicillin-resistant Staphylococcus aureus ATCC 700698 by microdilution technique
[6] = tested on: Staphylococcus aureus; test: Antibacterial activity against methicillin-resistant Staphylococcus aureus ATCC 34404 by microdilution technique

Compound | MIC [1] [µg/mL] | MIC [2] [µg/mL] | MIC [3] [µg/mL] | MIC [4] [µg/mL] | MIC [5] [µg/mL] | MIC [6] [µg/mL]
O=C(O)[C@@H](Cc1ccccc1)N1C(=O)/C(=C/c2cccc(Oc3ccc(F)cc3)c2)SC1=S | 1.95 (≈ 4.07 µM) | 1.95 (≈ 4.07 µM) | 1.95 (≈ 4.07 µM) | 1.95 (≈ 4.07 µM) | 1.95 (≈ 4.07 µM) | 1.95 (≈ 4.07 µM)
O=C(O)[C@@H](Cc1ccccc1)N1C(=O)/C(=C/c2cccc(Oc3ccc(Cl)c(Cl)c3)c2)SC1=S | 3.9 (≈ 7.35 µM) | 3.9 (≈ 7.35 µM) | 15.6 (≈ 29.4 µM) | 1.95 (≈ 3.68 µM) | 1.95 (≈ 3.68 µM) | 1.95 (≈ 3.68 µM)
O=C(O)[C@H](Cc1ccccc1)N1C(=O)/C(=C/c2cccc(Cc3ccc(Cl)c(Cl)c3)c2)SC1=S | 31.2 (≈ 59.1 µM) | 15.6 (≈ 29.5 µM) | 62.5 (≈ 118 µM) | 15.6 (≈ 29.5 µM) | 31.2 (≈ 59.1 µM) | 31.2 (≈ 59.1 µM)
O=C(O)[C@H](Cc1ccccc1)N1C(=O)/C(=C/c2ccccc2-c2ccccc2)SC1=S | 7.8 (≈ 17.5 µM) | 7.8 (≈ 17.5 µM) | 15.6 (≈ 35 µM) | 7.8 (≈ 17.5 µM) | 15.6 (≈ 35 µM) | 7.8 (≈ 17.5 µM)
O=C(O)[C@H](Cc1ccccc1)N1C(=O)/C(=C/c2cccc(-c3ccc(Cl)c(Cl)c3)c2)SC1=S | 7.8 (≈ 15.2 µM) | 1.95 (≈ 3.79 µM) | 3.9 (≈ 7.58 µM) | 3.9 (≈ 7.58 µM) | 7.8 (≈ 15.2 µM) | 3.9 (≈ 7.58 µM)
O=C(O)[C@H](Cc1ccccc1)N1C(=O)/C(=C/c2cccc(-c3nccs3)c2)SC1=S | 31.2 (≈ 69 µM) | 3.9 (≈ 8.62 µM) | 31.2 (≈ 69 µM) | 7.8 (≈ 17.2 µM) | 31.2 (≈ 69 µM) | 15.6 (≈ 34.5 µM)
O=C(O)[C@H](Cc1ccccc1)N1C(=O)/C(=C/c2cccc(-c3cncnc3)c2)SC1=S | 125 (≈ 279 µM) | 125 (≈ 279 µM) | 125 (≈ 279 µM) | 125 (≈ 279 µM) | 125 (≈ 279 µM) | 125 (≈ 279 µM)
O=C(O)[C@H](Cc1ccccc1)N1C(=O)/C(=C/c2ccccc2OCc2ccccc2)SC1=S | 7.8 (≈ 16.4 µM) | 7.8 (≈ 16.4 µM) | 15.6 (≈ 32.8 µM) | 15.6 (≈ 32.8 µM) | 7.8 (≈ 16.4 µM) | 7.8 (≈ 16.4 µM)
O=C(O)[C@H](Cc1ccccc1)N1C(=O)/C(=C/c2ccccc2OCCc2ccccc2)SC1=S | 7.8 (≈ 15.9 µM) | 15.6 (≈ 31.9 µM) | 15.6 (≈ 31.9 µM) | 15.6 (≈ 31.9 µM) | 7.8 (≈ 15.9 µM) | 15.6 (≈ 31.9 µM)
O=C(O)[C@H](Cc1ccccc1)N1C(=O)/C(=C/c2cccc(OCCc3ccccc3)c2)SC1=S | 15.6 (≈ 31.9 µM) | 15.6 (≈ 31.9 µM) | 31.2 (≈ 63.8 µM) | 31.2 (≈ 63.8 µM) | 31.2 (≈ 63.8 µM) | 31.2 (≈ 63.8 µM)
O=C(O)[C@H](Cc1ccccc1)N1C(=O)/C(=C/c2ccccc2Oc2ccc(Cl)c(Cl)c2)SC1=S | 3.9 (≈ 7.35 µM) | 1.95 (≈ 3.68 µM) | 3.9 (≈ 7.35 µM) | 3.9 (≈ 7.35 µM) | 7.8 (≈ 14.7 µM) | 3.9 (≈ 7.35 µM)
O=C(O)[C@H](Cc1ccccc1)N1C(=O)/C(=C/c2ccccc2Cc2ccccc2)SC1=S | 3.9 (≈ 8.49 µM) | 15.6 (≈ 33.9 µM) | 7.8 (≈ 17 µM) | 7.8 (≈ 17 µM) | 7.8 (≈ 17 µM) | 15.6 (≈ 33.9 µM)
O=C(O)[C@H](Cc1ccccc1)N1C(=O)/C(=C/c2cccc(OCC3CC3)c2)SC1=S | 15.6 (≈ 35.5 µM) | 15.6 (≈ 35.5 µM) | 15.6 (≈ 35.5 µM) | 15.6 (≈ 35.5 µM) | 15.6 (≈ 35.5 µM) | 15.6 (≈ 35.5 µM)
O=C(O)c1cn(C2CC2)c2cc(N3CCNCC3)c(F)cc2c1=O [CIPROFLOXACIN] | – | 62.5 (≈ 189 µM) | 62.5 (≈ 189 µM) | – | – | ≤ 0.48
CC1(C)S[C@@H]2[C@H](NC(=O)Cc3ccccc3)C(=O)N2[C@H]1C(=O)O [PENICILLIN G] | 125 (≈ 374 µM) | 250 (≈ 748 µM) | 62.5 (≈ 187 µM) | 62.5 (≈ 187 µM) | 15.6 (≈ 46.7 µM) | 31.2 (≈ 93.5 µM)
CN[C@H](CC(C)C)C(=O)N[C@H]1C(=O)N[C@@H](CC(N)=O)C(=O)N[C@H]2C(=O)N[C@H]3C(=O)N[C@H](C(=O)N[C@H](C(=O)O)c4cc(O)cc(O)c4-c4cc3ccc4O)[C@H](O)c3ccc(c(Cl)c3)Oc3cc2cc(c3O[C@@H]2O[C@H](CO)[C@@H](O)[C@H](O)[C@H]2O[C@H]2C[C@](C)(N)[C@H](O)[C@H](C)O2)Oc2ccc(cc2Cl)[C@H]1O [VANCOMYCIN] | ≤ 0.48 | ≤ 0.48 | 1.95 (≈ 1.35 µM) | ≤ 0.48 | ≤ 0.48 | ≤ 0.48
